According to patent US11766444B2, “Pharmaceutical composition for preventing or treating degenerative brain disorders including HDL-APOM-S1P as active ingredient” (Kyungpook National University Industry-Academic Cooperation …, priority 2017, dated 2023):
One block for each compound: values may come before it.

Tests used:
AD patients = conditions: cited from earlier work; for delaying cognitive decline compared to placebo: large-scale clinical trial, one year
[1] = S1P, ApoM, HDL-S1P and HDL-ApoM levels in plasma of APP/PS1 mice after HDL-ApoM-S1P loading; format: in vivo, mouse; conditions: i.v. 25 μl twice a week for 4 weeks (8 times), vs untreated APP/PS1 mice
Excerpt: (§1) Transgenic mice overexpressing hAPP695swe (APPswe) and presenilin-1M146V (PS1) mutations were used as mouse models of the Alzheimer's disease. These are mouse lines produced by GlaxoSmithKline (Harlow, UK) with the standard technology for C57BL background (Charles River, UK), which double heterozygote mutant mice (APP/PS1 tg mice) were produced by backcrossing APPswe mice with pure C57BL/6 backgrounds and crossing PS1 mice
(§2) After collecting blood from mice, the obtained blood was separated into erythrocytes and plasma by centrifugation. The separated erythrocytes are reacted with 10 uM sphingosine at 37° C. for 1 hour, and then reacted for 1 hour at 37° C. after mixing again with the separated plasma. After completion of the reaction, erythrocytes and plasma were separated by centrifugation, and only the plasma was collected again. The plasma thus obtained was loaded with S1P in HDL (HDL-ApoM-S1P loading), which was illustrated in FIG. 1.
The plasma solution thus obtained was intravenously injected 25 μl into mice twice a week for 4 weeks (total 8 times) according to the experimental outline shown in FIG. 2. As a control group, 3 μM S1P (Avanti) and […] ApoM (Mybiosource, SEQ ID NO: 1) were injected intravenously with 25 μl in mice twice a week for 4 weeks (eight times in total).
To collect blood from mouse models (APP/PS1 tg mice or APP/PS1/ApoM tg mice) and normal control mice (WT), the mice were anesthetized first, and 500 μl to 700 μl of blood were collected in heparin tubes (BD Falcon) by cardiac drawing. Each blood sample was then centrifuged at 1,200 rpm for 5 minutes to separate plasma from the supernatant. This plasma sample was stored at −80° C. before being used for analysis.
60 μl of plasma sample was placed in the ultrafast centrifuge tube, and then the same amount of PBS (Gibco) solution was added to form a layer on the plasma. A high speed centrifuge (HITACHI cp100wx Centrifuge P70AT rotor) was used to centrifuge at 70,000 rpm for 3 hours at 4° C. 60 μl of the lower layer of the sample separated into two layers was transferred into a new ultra-centrifuge tube. […]
Extraction and quantification of S1P was performed in the following manner. […] The dried lipid extract was resuspended in 25 μl of 0.2% Igepal CA-630 (Sigma-Aldrich), and the concentration level of each lipid was quantified by the UPLC system using the column ACQUITY BEH Shield RP18 1.7 μm 2.1×50 mm (186002853) and 0.1% of NH4OH.
Using a commercial ELISA kit (CUSABIO Human ApoM ELISA Kit and Mouse ApoM ELISA Kit), the amount of apolipoprotein M (ApoM) contained in the mouse plasma or HDL fractionated therefrom was quantified according to the manufacturer's protocol. […]

amyloid-β = experiment: Amyloid-β deposition in brain tissue (cerebral cortex), thioflavin S staining and immunofluorescence; format: in vivo, mouse; conditions: APP/PS1 mice, vs 9-month-old untreated APP/PS1 mice
Excerpt: as §1
(§3) After collecting blood from mice, the obtained blood was separated into erythrocytes and plasma by centrifugation. The separated erythrocytes are reacted with 10 uM sphingosine at 37° C. for 1 hour, and then reacted for 1 hour at 37° C. after mixing again with the separated plasma. […]
(§4) After fixing the cerebral (especially cortex) and hippocampus of mice with 4% paraformaldehyde, the immobilized tissues were incubated with 0.5% thioflavin S (Sigma-Aldrich) or anti-20G10 against Aβ42 (mouse, 1:1000), anti-G30 against Aβ40 (rabbit, 1:1000), anti-lba-1 (rabbit, 1:500, Wako), and anti-GFAP (rabbit, 1:500, DAKO), respectively. […] The sites were analyzed using a laser scanning confocal microscope or Olympus BX51 microscope equipped with Fluoview SV1000 imaging software (Olympus FV1000, Japan). Metamorph software (Molecular Devices) was used to quantify the percentage of area of stained area to area of total tissue. […]

tau = experiment: Tau deposition in brain tissue (AT8 immunofluorescence); format: in vivo, mouse; conditions: APP/PS1 mice, cerebral cortex, vs 9-month-old untreated APP/PS1 mice
Excerpt: as §1, §3, §4

microglia = experiment: Activity of microglia (Iba1 staining), neuroinflammatory response; format: in vivo, mouse; conditions: APP/PS1 mice, brain tissue, vs untreated APP/PS1 mice
Excerpt: as §1, §3, §4

astrocytes = experiment: Activity of astrocytes (GFAP staining), neuroinflammatory response; format: in vivo, mouse; conditions: APP/PS1 mice, brain tissue, vs untreated APP/PS1 mice
Excerpt: as §1, §3, §4

APP/PS1 mice = experiment: Morris water maze (MWM) test; format: in vivo, mouse; conditions: 10 days training, probe trial day 11
Excerpt: as §1, §2
The plasma solution thus obtained was intravenously injected 25 μl into mice twice a week for 4 weeks (total 8 times) according to the experimental outline shown in FIG. 2. […]
In order to identify potential effects on learning and memory, Morris water maze (MWM) and fear conditioning experiments were performed according to known methods. […] All experiments were recorded using a charge-coupled device (CCD) camera with video monitor and computer. […]

SMILES: CS(=O)(=O)c1ccc(C2=C(c3ccccc3)C(=O)OC2)cc1 [rofecoxib]
delaying cognitive decline compared to placebo (AD patients): not effective
efficacy in mild to moderate AD patients (AD patients; trial for 1 year): ineffective

SMILES: COc1ccc2cc([C@H](C)C(=O)O)ccc2c1 [naproxen]
delaying cognitive decline compared to placebo (AD patients): not effective

SMILES: CS(=O)(=O)Nc1ccc([N+](=O)[O-])cc1Oc1ccccc1 [nimesulide]
rate of cognitive change (AD patients; AD patients, small 24-week studies): no significant difference

SMILES: C[C@]12C=CC(=O)C=C1CC[C@@H]1[C@@H]2C(=O)C[C@@]2(C)[C@H]1CC[C@]2(O)C(=O)CO [prednisone]
cognitive decline, treatment vs placebo groups (AD patients; low doses for one year): no difference

SMILES: CCN(CCO)CCCC(C)Nc1ccnc2cc(Cl)ccc12 (centres unmarked) [hydroxychloroquine]
preventing memory degradation (AD patients; 18-month experiment): no protective effect

SMILES: O=C(O)Cc1ccccc1Nc1c(Cl)cccc1Cl [diclofenac]
index of cognitive decline vs placebo (AD patients; mild to moderate AD patients, diclofenac in combination with misoprostol, after 25 weeks): no significant difference

level of ApoM in plasma [1]: did not show a difference
level of HDL-ApoM in the HDL fraction [1]: did not show a difference
level of HDL-S1P in the HDL fraction [1]: did not show a difference
level of S1P in plasma [1]: did not show a difference
SMILES: CCCCCCCCCCCCC/C=C/[C@@H](O)[C@@H](N)COP(=O)(O)O [S1P, Sphingosine-1-Phosphate]
Aβ40 deposition in brain tissue (amyloid-β): did not show a significant difference
Aβ42 deposition in brain tissue (amyloid-β): did not show a significant difference
tau deposition (AT8) in brain tissue (tau): did not show a significant difference
inflammatory activity of microglia (microglia): no significant difference
inflammatory activity of astrocytes (astrocytes): no significant difference
learning and memory (spatial memory formation), MWM (APP/PS1 mice): severe impairment
